Experimental data: patent publication US10028942B2 (priority 2013, dated 2018)

Target: T1, DLK (Homo sapiens, UniProt Q12852)
T1 sequence (Q12852 1-520): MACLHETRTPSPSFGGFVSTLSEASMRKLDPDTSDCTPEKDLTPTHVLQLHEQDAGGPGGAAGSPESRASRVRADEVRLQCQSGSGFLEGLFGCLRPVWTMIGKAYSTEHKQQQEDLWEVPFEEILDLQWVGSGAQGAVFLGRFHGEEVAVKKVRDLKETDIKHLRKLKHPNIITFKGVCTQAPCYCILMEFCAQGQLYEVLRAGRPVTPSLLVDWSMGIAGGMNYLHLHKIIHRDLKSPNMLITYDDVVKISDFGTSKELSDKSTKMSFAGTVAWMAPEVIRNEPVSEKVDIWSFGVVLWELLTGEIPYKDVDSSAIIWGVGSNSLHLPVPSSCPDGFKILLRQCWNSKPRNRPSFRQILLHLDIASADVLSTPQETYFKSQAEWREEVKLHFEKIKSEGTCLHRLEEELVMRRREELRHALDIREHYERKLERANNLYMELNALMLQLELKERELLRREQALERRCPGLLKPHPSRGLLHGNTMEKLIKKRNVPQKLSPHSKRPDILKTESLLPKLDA
Experiment: biochemical

Row | Ki | SMILES
1 | > 1000 nM | CC(C)n1nc(-c2cnc3c(c2)CC(=O)N3)cc1C1CCN(C2COC2)CC1 [Compound 73, 5-(1-isopropyl-5-(1-(oxetan-3-yl)pipe-ridin-4-yl)-1H-pyrazol-3-yl)-1H-pyrro-lo[2,3-b]pyridin-2(3H)-one]
2 | > 1000 nM | CC(C)n1nc(-c2cnc3c(c2)C(C)(C)C(=O)N3)cc1C1CCN(C2COC2)CC1 [Compound 80, 5-(1-isopropyl-5-(1-(oxetan-3-yl)pipe-ridin-4-yl)-1H-pyrazol-3-yl)-3,3-di-methyl-1H-pyrrolo[2,3-b]pyridin-2 (3H)-one]
3 | > 1000 nM | Cc1cc(-c2cc(C3CCN(C4COC4)CC3)n(C(C)C)n2)cnc1N [Compound 82, 5-(1-isopropyl-5-(1-(oxetan-3-yl)pipe-ridin-4-yl)-1H-pyrazol-3-yl)-3-meth-ylpyridin-2-amine]
4 | > 1000 nM | CC(C)n1nc(-c2cnc3c(c2)OCCN3)cc1C1CCN(C2COC2)CC1 [Compound 94, 7-(1-isopropyl-5-(1-(oxetan-3-yl)pipe-ridin-4-yl)-1H-pyrazol-3-yl)-3,4-di-hydro-2H-pyrido[3,2-b][1,4]oxazine]
5 | > 1000 nM | CC(C)n1nc(-c2cnc3c(c2)CCCN3)cc1C1CCN(C2COC2)CC1 [Compound 96, 6-(1-isopropyl-5-(1-(oxetan-3-yl)pipe-ridin-4-yl)-1H-pyrazol-3-yl)-1,2,3,4-tetahydro-1,8-naphthyridine]
6 | > 1000 nM | CC1(Cn2nc(-c3cnc(N)c(Cl)c3)cc2[C@H]2[C@@H]3CN(CC(F)(F)F)C[C@@H]32)COC1 [Compound 112, 3-chloro-5-(1-((3-methyloxetan-3-yl)methyl)-5-((1R,5S,6r)-3-(2,2,2-trifluoro-ethyl)-3-azabicyclo[3.1.0]hexan-6-yl)-1H-pyrazol-3-yl)pyridin-2-amine]

Row | SMILES | Ki
7 | CC(C)n1nc(-c2cnc3[nH]cnc3c2)cc1C1CN(C2COC2)C1 [Compound 62, 6-(1-isopropyl-5-(1-(oxetan-3-yl)aze-tidin-3-yl)-1H-pyrazol-3-yl)-3H-imi-dazo[4,5-b]pyridine] | > 1000 nM
8 | CC(C)n1nc(-c2cnc3[nH]cnc3c2)cc1C1CCN(C2COC2)CC1 [Compound 79, 6-(1-isopropyl-5-(1-(oxetan-3-yl)pipe-ridin-4-yl)-1H-pyrazol-3-yl)-3H-imi-dazo[4,5-b]pyridine] | > 1000 nM
9 | COC1(c2cc(-c3cnc(N)c(C(F)(F)F)c3)nn2C(C)C)CCN(C2COC2)CC1 [Compound 103, 5-(1-isopropyl-5-(4-methoxy-1-(oxetan-3-yl)piperidin-4-yl)-1H-pyrazol-3-yl)-3-(trifluoromethyl)pyridin-2-amine] | > 1000 nM
